Measured values: US20230126893A1, “[(1,4,5-TRISUBSTITUTED-1H-PYRAZOL-3-YL)SULFANYL]ACETIC ACID DERIVATIVES, SALTS THEREOF, AND USE THEREOF AS ACTIVE HERBICIDAL INGREDIENTS” (BAYER AKTIENGESELLSCHAFT, priority 2020, published 2023)

The compounds below were run on Veronica persica (assay: Pre-emergence herbicidal effect against VERPE). Settings: 1280 g/ha, visual score after 3 weeks, 100% = plants have died, 0% = like control plants.
Format: in vivo
Description: (§1) 1. Pre-emergence herbicidal effect and crop plant compatibility Seeds of monocotyledonous and dicotyledonous weed plants and crop plants are laid out in sandy loam soil in wood-fibre pots and covered with soil. The compounds of the invention, formulated in the form of wettable powders (WP) or as emulsion concentrates (EC), are then applied to the surface of the covering soil as aqueous suspension or emulsion at a water application rate equating to 600 to 800 L/ha with addition of 0.2% wetting agent. After the treatment, the pots are placed in a greenhouse and kept under good growth conditions for the trial plants. The damage to the test plants is scored visually after a test period of 3 weeks by comparison with untreated controls (herbicidal activity in percent (%): 100% activity=the plants have died, 0% activity=like control plants). [table]

Compound | Pre-emergence action against VERPE [%]
O=C(O)CSc1nn(-c2ccccc2F)c(-c2ccc(F)c(F)c2)c1[N+](=O)[O-] [Example I-024] | 100
CCOC(=O)CSc1nn(-c2cc(F)ccc2F)c(-c2ccc(F)cc2)c1Br [Example I-020] | 100

What follows are compounds tested on Poa annua (assay: Pre-emergence herbicidal effect against POAAN). Settings: 1280 g/ha, visual score after 3 weeks, 100% = plants have died, 0% = like control plants.
Format: in vivo
Description: as §1

Compound | Pre-emergence action against POAAN [%]
O=C(O)CSc1nn(-c2ccccc2F)c(-c2ccc(F)c(F)c2)c1[N+](=O)[O-] [Example I-024] | 100
CCOC(=O)CSc1nn(-c2cc(F)ccc2F)c(-c2ccc(F)cc2)c1Br [Example I-020] | 100

Each compound was assayed on Veronica persica (assay: Post-emergence herbicidal effect against VERPE). Settings: 1280 g/ha, visual assessment about 3 weeks after treatment, 100% = plants have died, 0% = like control plants.
Format: in vivo
Protocol: (§2) [table] 2. Post-emergence herbicidal effect and crop plant compatibility Seeds of monocotyledonous and dicotyledonous weed and crop plants are laid out in sandy loam soil in wood-fibre pots, covered with soil and cultivated in a greenhouse under good growth conditions. 2 to 3 weeks after sowing, the test plants are treated at the one-leaf stage. The compounds of the invention, formulated in the form of wettable powders (WP) or as emulsion concentrates (EC), are then sprayed onto the green parts of the plants as aqueous suspension or emulsion at a water application rate equating to 600 to 800 l/ha with addition of 0.2% wetting agent. After the test plants have been left to stand in the greenhouse under optimal growth conditions for about 3 weeks, the action of the preparations is assessed visually in comparison to untreated controls (herbicidal action in percent (%): 100% activity=the plants have died, 0% activity=like control plants).

Compound | Post-emergence action against VERPE [%]
O=C(O)CSc1nn(-c2ccccc2F)c(-c2ccc(F)c(F)c2)c1[N+](=O)[O-] [Example I-024] | 100
CCOC(=O)CSc1nn(-c2cc(F)ccc2F)c(-c2ccc(F)cc2)c1Br [Example I-020] | 90

These compounds were tested on Lolium rigidum (assay: Pre-emergence herbicidal effect against LOLRI). Settings: 1280 g/ha, visual score after 3 weeks, 100% = plants have died, 0% = like control plants.
Format: in vivo
Description: as §1

Compound | Pre-emergence action against LOLRI [%]
O=C(O)CSc1nn(-c2ccccc2F)c(-c2ccc(F)c(F)c2)c1[N+](=O)[O-] [Example I-024] | 100
CCOC(=O)CSc1nn(-c2cc(F)ccc2F)c(-c2ccc(F)cc2)c1Br [Example I-020] | 100

These compounds were tested on Digitaria sanguinalis (assay: Post-emergence herbicidal effect against DIGSA). Settings: 1280 g/ha, visual score after about 3 weeks, 100% = plants have died, 0% = like control plants.
Format: in vivo
Protocol: as §2

Compound | Post-emergence action against DIGSA [%]
O=C(O)CSc1nn(-c2ccccc2F)c(-c2ccc(F)c(F)c2)c1[N+](=O)[O-] [Example I-024] | 100
CCOC(=O)CSc1nn(-c2cc(F)ccc2F)c(-c2ccc(F)cc2)c1Br [Example I-020] | 90

The compounds below were run on Abutylon threophrasti (assay: Post-emergence herbicidal effect against ABUTH). Settings: 1280 g/ha, visual assessment about 3 weeks after treatment, 100% = plants have died, 0% = like control plants.
Format: in vivo
Protocol: as §2

Compound | Post-emergence action against ABUTH [%]
O=C(O)CSc1nn(-c2ccccc2F)c(-c2ccc(F)c(F)c2)c1[N+](=O)[O-] [Example I-024] | 90

Each compound was assayed on Digitaria sanguinalis (assay: Pre-emergence herbicidal effect against DIGSA). Settings: 1280 g/ha, visual score after 3 weeks, 100% = plants have died, 0% = like control plants.
Format: in vivo
Description: as §1

Compound | Pre-emergence action against DIGSA [%]
O=C(O)CSc1nn(-c2ccccc2F)c(-c2ccc(F)c(F)c2)c1[N+](=O)[O-] [Example I-024] | 100
CCOC(=O)CSc1nn(-c2cc(F)ccc2F)c(-c2ccc(F)cc2)c1Br [Example I-020] | 100

What follows are compounds tested on Echinochloa crus-galli (assay: Pre-emergence herbicidal effect against ECHCG). Settings: 1280 g/ha, visual score after 3 weeks, 100% = plants have died, 0% = like control plants.
Format: in vivo
Description: as §1

Compound | Pre-emergence action against ECHCG [%]
O=C(O)CSc1nn(-c2ccccc2F)c(-c2ccc(F)c(F)c2)c1[N+](=O)[O-] [Example I-024] | 90

These compounds were tested on Setaria viridis (assay: Post-emergence herbicidal effect against SETVI). Settings: 1280 g/ha, visual assessment about 3 weeks after treatment, 100% = plants have died, 0% = like control plants.
Format: in vivo
Protocol: as §2

Compound | Post-emergence action against SETVI [%]
O=C(O)CSc1nn(-c2ccccc2F)c(-c2ccc(F)c(F)c2)c1[N+](=O)[O-] [Example I-024] | 100
CCOC(=O)CSc1nn(-c2cc(F)ccc2F)c(-c2ccc(F)cc2)c1Br [Example I-020] | 90

These compounds were tested on Alopecurus myosuroides (assay: Post-emergence herbicidal effect against ALOMY). Settings: 1280 g/ha, visual score after about 3 weeks, 100% = plants have died, 0% = like control plants.
Format: in vivo
Protocol: as §2

Compound | Post-emergence action against ALOMY [%]
O=C(O)CSc1nn(-c2ccccc2F)c(-c2ccc(F)c(F)c2)c1[N+](=O)[O-] [Example I-024] | 100
CCOC(=O)CSc1nn(-c2cc(F)ccc2F)c(-c2ccc(F)cc2)c1Br [Example I-020] | 100

The compounds below were run on Poa annua (assay: Post-emergence herbicidal effect against POAAN). Settings: 1280 g/ha, visual assessment about 3 weeks after treatment, 100% = plants have died, 0% = like control plants.
Format: in vivo
Protocol: as §2

Compound | Post-emergence action against POAAN [%]
O=C(O)CSc1nn(-c2ccccc2F)c(-c2ccc(F)c(F)c2)c1[N+](=O)[O-] [Example I-024] | 100
CCOC(=O)CSc1nn(-c2cc(F)ccc2F)c(-c2ccc(F)cc2)c1Br [Example I-020] | 90

What follows are compounds tested on Tripleurospermum inodorum (assay: Pre-emergence herbicidal effect against MATIN). Settings: 1280 g/ha, visual score after 3 weeks, 100% = plants have died, 0% = like control plants.
Format: in vivo
Description: as §1

Compound | Pre-emergence action against MATIN [%]
O=C(O)CSc1nn(-c2ccccc2F)c(-c2ccc(F)c(F)c2)c1[N+](=O)[O-] [Example I-024] | 100
CCOC(=O)CSc1nn(-c2cc(F)ccc2F)c(-c2ccc(F)cc2)c1Br [Example I-020] | 100

The compounds below were run on Stellaria media (assay: Pre-emergence herbicidal effect against STEME). Settings: 1280 g/ha, visual score after 3 weeks, 100% = plants have died, 0% = like control plants.
Format: in vivo
Description: as §1

Compound | Pre-emergence action against STEME [%]
O=C(O)CSc1nn(-c2ccccc2F)c(-c2ccc(F)c(F)c2)c1[N+](=O)[O-] [Example I-024] | 100
CCOC(=O)CSc1nn(-c2cc(F)ccc2F)c(-c2ccc(F)cc2)c1Br [Example I-020] | 100

The compounds below were run on Tripleurospermum inodorum (assay: Post-emergence herbicidal effect against MATIN). Settings: 1280 g/ha, visual assessment about 3 weeks after treatment, 100% = plants have died, 0% = like control plants.
Format: in vivo
Protocol: as §2

Compound | Post-emergence action against MATIN [%]
O=C(O)CSc1nn(-c2ccccc2F)c(-c2ccc(F)c(F)c2)c1[N+](=O)[O-] [Example I-024] | 100
CCOC(=O)CSc1nn(-c2cc(F)ccc2F)c(-c2ccc(F)cc2)c1Br [Example I-020] | 90

What follows are compounds tested on Bassia scoparia (assay: Post-emergence herbicidal effect against KCHSC). Settings: 1280 g/ha, visual assessment about 3 weeks after treatment, 100% = plants have died, 0% = like control plants.
Format: in vivo
Protocol: as §2

Compound | Post-emergence action against KCHSC [%]
O=C(O)CSc1nn(-c2ccccc2F)c(-c2ccc(F)c(F)c2)c1[N+](=O)[O-] [Example I-024] | 90
CCOC(=O)CSc1nn(-c2cc(F)ccc2F)c(-c2ccc(F)cc2)c1Br [Example I-020] | 90

Each compound was assayed on Setaria viridis (assay: Pre-emergence herbicidal effect against SETVI). Settings: 1280 g/ha, visual score after 3 weeks, 100% = plants have died, 0% = like control plants.
Format: in vivo
Description: as §1

Compound | Pre-emergence action against SETVI [%]
O=C(O)CSc1nn(-c2ccccc2F)c(-c2ccc(F)c(F)c2)c1[N+](=O)[O-] [Example I-024] | 100
CCOC(=O)CSc1nn(-c2cc(F)ccc2F)c(-c2ccc(F)cc2)c1Br [Example I-020] | 100

What follows are compounds tested on Stellaria media (assay: Post-emergence herbicidal effect against STEME). Settings: 1280 g/ha, visual assessment about 3 weeks after treatment, 100% = plants have died, 0% = like control plants.
Format: in vivo
Protocol: as §2

Compound | Post-emergence action against STEME [%]
CCOC(=O)CSc1nn(-c2cc(F)ccc2F)c(-c2ccc(F)cc2)c1Br [Example I-020] | 90

These compounds were tested on Echinochloa crus-galli (assay: Post-emergence herbicidal effect against ECHCG). Settings: 1280 g/ha, visual score after about 3 weeks, 100% = plants have died, 0% = like control plants.
Format: in vivo
Protocol: as §2

Compound | Post-emergence action against ECHCG [%]
O=C(O)CSc1nn(-c2ccccc2F)c(-c2ccc(F)c(F)c2)c1[N+](=O)[O-] [Example I-024] | 90
CCOC(=O)CSc1nn(-c2cc(F)ccc2F)c(-c2ccc(F)cc2)c1Br [Example I-020] | 90

The compounds below were run on Alopecurus myosuroides (assay: Pre-emergence herbicidal effect against ALOMY). Settings: 1280 g/ha, visual score after 3 weeks, 100% = plants have died, 0% = like control plants.
Format: in vivo
Description: as §1

Compound | Pre-emergence action against ALOMY [%]
O=C(O)CSc1nn(-c2ccccc2F)c(-c2ccc(F)c(F)c2)c1[N+](=O)[O-] [Example I-024] | 90
CCOC(=O)CSc1nn(-c2cc(F)ccc2F)c(-c2ccc(F)cc2)c1Br [Example I-020] | 90
